According to PMC6133161, “Thiazoles with cyclopropyl fragment as antifungal, anticonvulsant, and anti-Toxoplasma gondii agents: synthesis, toxicity evaluation, and molecular docking study” (Medicinal Chemistry Research, 2018):
In brackets after ≈: the same amount, converted by molar mass.

Experiments:
C. krusei = assay: Broth microdilution MIC/MFC, clinical isolate; format: cell-based; details: Pichia kudriavzevii, C. krusei clinical strain; for MFC: read-out: MFC; for MIC: read-out: MIC
Description: (§1) In the study of antifungal activity of the compounds 3a–3j, 15 clinical strains of different species of yeasts from Candida species, namely C. albicans, C. dubliniensis C. famata, C. inconspicua, C. krusei, C. tropicalis, C. glabrata, C. lambica, C. kefyr, C. lusitaniae, C. parapsilosis, C. guilliermondii, C. lusitaniae, C. pulcherrima and C. sake were also used. These fungi were isolated by the author (from Department of Pharmaceutical Microbiology of Medical University in Lublin, Poland) from different clinical materials, e.g., from upper respiratory tract of hospitalized patients including cancer patients (i.e., with non-small cell lung cancer or hematological malignancies). Some patients were after pre-operative or post-operative chemotherapy (treated with etoposide or cis-platin given in doses according to the standard procedures), patients with chronic hepatitis C (undergoing peginterferon and ribavirin therapy or without antiviral therapy), patients with diabetes, elderly people, aged of 65 years old or older, staying in close population, such as a care centre and people staying outside the home care. The Ethical Committee of the Medical University of Lublin approved the study protocol (No. KE-0254/75/2011). The isolates were identified by standard diagnostic methods—biochemical microtest, e.g., API 20C AUX, ID 32C, API Candida (bioMérieux) on the basis of assimilation of various substrates. All the used microbial cultures were first subcultured on nutrient agar or Sabouraud agar for bacteria and fungi, respectively. The RPMI 1640 with MOPS (for fungi) were inoculated with the suspensions of fungal species. Microbial suspensions were prepared in sterile saline (0.85% NaCl) with an optical density of 0.5 McFarland standard scale (Wiegand et al. [2008]). Samples containing examined compounds were dissolved in dimethyl sulfoxide (DMSO). Furthermore, fungal suspensions were put onto Petri dishes with solid media containing 2 mg/ml of the tested compounds followed incubation under appropriate conditions. The inhibition of microbial growth was judged by comparison with a control culture prepared without any sample tested. Nystatin (Sigma) was used as a reference antifungal compound. Subsequently MIC minimal inhibitory concentration (MIC) of the compounds was examined by the microdilution broth method, using their two-fold dilutions in RPMI 1640 broth with MOPS prepared in 96-well polystyrene plates. Final concentrations of the compounds ranged from 1000 to 0.0038 µg/ml. Microbial suspensions were prepared in sterile saline with an optical density of 0.5 McFarland standard. Next fungal suspension was added per each well containing broth and various concentrations of the examined compounds. After incubation, the MIC was assessed spectrophotometric as the lowest concentration of the samples showing complete fungal growth inhibition. Appropriate DMSO, growth and sterile controls were carried out. The medium with no tested substances was used as a control (Wiegand et al. [2008]). The minimal fungicidal concentration (MFC) are defined as the lowest concentration of the compounds that is required to kill a particular fungal species. MFC was determined by removing the culture using for MIC determinations from each well and spotting onto appropriate agar medium. The plates were incubated. The lowest compounds concentration with no visible growth observed was assessed as a fungicidal concentration. All the experiments were repeated three times and representative data are presented.
(§2) The MFC/MIC ratios were calculated in order to determine fungicidal (MFC/MIC ≤ 4) or fungistatic (MFC/MIC > 4) effect of the tested compounds (O’Donnell et al. [2010]).

C. sake = assay: Broth microdilution MIC/MFC, clinical isolate; format: cell-based; details: Fermentozyma sake, C. sake clinical strain; for MFC: read-out: MFC; for MIC: read-out: MIC
Description: as §1, §2

C. lambica = assay: Broth microdilution MIC/MFC, clinical isolate; format: cell-based; details: Pichia fermentans, C. lambica clinical strain; for MFC: read-out: MFC; for MIC: read-out: MIC
Description: as §1, §2

C. pulcherrima = assay: Broth microdilution MIC/MFC, clinical isolate; format: cell-based; details: C. pulcherrima clinical strain; for MFC: read-out: MFC; for MIC: read-out: MIC
Description: as §1, §2

C. inconspicua = assay: Broth microdilution MIC/MFC, clinical isolate; format: cell-based; details: Pichia inconspicua, C. inconspicua clinical strain; for MFC: read-out: MFC; for MIC: read-out: MIC
Description: as §1, §2

C. famata = assay: Broth microdilution MIC/MFC, clinical isolate; format: cell-based; details: Debaryomyces hansenii, C. famata clinical strain; for MFC: read-out: MFC; for MIC: read-out: MIC
Description: as §1, §2

C. parapsilosis = assay: Broth microdilution MIC/MFC, clinical isolate; format: cell-based; details: Lodderomyces parapsilosis, C. parapsilosis clinical strain; for MFC: read-out: MFC; for MIC: read-out: MIC
Description: as §1, §2

C. kefyr = assay: Broth microdilution MIC/MFC, clinical isolate; format: cell-based; details: C. kefyr clinical strain; for MFC / MIC: Kluyveromyces marxianus; for MFC: read-out: MFC; for MIC: read-out: MIC
Description: as §1, §2

C. dubliniensis = assay: Broth microdilution MIC/MFC, clinical isolate; format: cell-based; details: Candida dubliniensis, C. dubliniensis clinical strain; for MFC: read-out: MFC; for MIC: read-out: MIC
Description: as §1, §2

C. albicans = assay: Broth microdilution MIC/MFC, clinical isolate; format: cell-based; details: Candida albicans, C. albicans clinical strain; for MFC: read-out: MFC; for MIC: read-out: MIC
Description: as §1, §2

C. lusitaniae = assay: Broth microdilution MIC/MFC, clinical isolate; format: cell-based; details: Clavispora lusitaniae, C. lusitaniae clinical strain; for MFC: read-out: MFC; for MIC: read-out: MIC
Description: as §1, §2

C. tropicalis = assay: Broth microdilution MIC/MFC, clinical isolate; format: cell-based; details: Candida tropicalis, C. tropicalis clinical strain; for MFC: read-out: MFC; for MIC: read-out: MIC
Description: as §1, §2

C. guilliermondii = assay: Broth microdilution MIC/MFC, clinical isolate; format: cell-based; details: Meyerozyma guilliermondii, C. guilliermondii clinical strain; for MFC: read-out: MFC; for MIC: read-out: MIC
Description: as §1, §2

C. glabrata = assay: Broth microdilution MIC/MFC, clinical isolate; format: cell-based; details: Nakaseomyces glabratus, C. glabrata clinical strain; for MFC: read-out: MFC; for MIC: read-out: MIC
Description: as §1, §2

[1] = test system: Toxoplasma gondii RH strain; assay: [3H]-uracil incorporation assay in VERO host cells; details: Toxoplasma gondii, Vero, read-out: Proliferation of Toxoplasma gondii RH strain ± SD

Row | SMILES | MFC (C. krusei) [µg/mL] | MIC (C. krusei) [µg/mL] | MFC (C. sake) [µg/mL] | MIC (C. sake) [µg/mL] | MFC (C. lambica) [µg/mL] | MIC (C. lambica) [µg/mL] | MFC (C. pulcherrima) [µg/mL] | MIC (C. pulcherrima) [µg/mL] | MFC (C. inconspicua) [µg/mL] | MIC (C. inconspicua) [µg/mL] | MFC (C. famata) [µg/mL] | MIC (C. famata) [µg/mL] | MFC (C. parapsilosis) [µg/mL] | MIC (C. parapsilosis) [µg/mL] | MFC (C. kefyr) [µg/mL] | MIC (C. kefyr) [µg/mL] | MFC (C. dubliniensis) [µg/mL] | MIC (C. dubliniensis) [µg/mL] | MFC (C. albicans) [µg/mL] | MIC (C. albicans) [µg/mL] | also measured
1 | Cc1ccc(-c2csc(N/N=C/C3CC3)n2)cc1 [Compound 3d, (E)-2-(2-(Cyclopropylmethylene)hydrazinyl)-4-p-tolylthiazole] | 0.98 (≈ 3.81 µM) | 0.24 (≈ 0.933 µM) | 0.48 (≈ 1.87 µM) | 0.12 (≈ 0.466 µM) | > 1000 | 15.6 (≈ 60.7 µM) | > 1000 | 15.6 (≈ 60.7 µM) | 0.98 (≈ 3.81 µM) | 0.12 (≈ 0.466 µM) | 3.91 (≈ 15.2 µM) | 0.48 (≈ 1.87 µM) | 0.24 (≈ 0.933 µM) | 0.06 (≈ 0.233 µM) | 7.81 (≈ 30.3 µM) | 1.95 (≈ 7.58 µM) | 0.12 (≈ 0.466 µM) | 0.06 (≈ 0.233 µM) | 0.24 (≈ 0.933 µM) | 0.12 (≈ 0.466 µM) | MFC (C. lusitaniae): 0.48 µg/mL (≈ 1.87 µM); MIC (C. lusitaniae): 0.12 µg/mL (≈ 0.466 µM); MFC (C. tropicalis): 0.12 µg/mL (≈ 0.466 µM); MIC (C. tropicalis): 0.06 µg/mL (≈ 0.233 µM); MFC (C. guilliermondii): 3.91 µg/mL (≈ 15.2 µM); MIC (C. guilliermondii): 0.48 µg/mL (≈ 1.87 µM); MFC (C. glabrata): > 1000 µg/mL; MIC (C. glabrata): 15.6 µg/mL (≈ 60.7 µM); activity at 0.98 µg/mL [1]: 88.7 ± 2.63%; activity at 1.95 µg/mL [1]: 100 ± 4.54%; activity at 3.91 µg/mL [1]: 93.4 ± 5.18%; activity at 7.81 µg/mL [1]: 90.4 ± 3.29%; activity at 15.63 µg/mL [1]: 84.41 ± 0.08%
2 | COc1ccc(-c2csc(N/N=C/C3CC3)n2)cc1 [Compound 3f, (E)-2-(2-(Cyclopropylmethylene)hydrazinyl)-4-(4-methoxyphenyl)thiazole] | 0.015 (≈ 0.0549 µM) | 0.015 (≈ 0.0549 µM) | 7.81 (≈ 28.6 µM) | 0.06 (≈ 0.219 µM) | > 1000 | 31.2 (≈ 114 µM) | > 1000 | 31.2 (≈ 114 µM) | 0.98 (≈ 3.59 µM) | 0.03 (≈ 0.11 µM) | 7.81 (≈ 28.6 µM) | 0.48 (≈ 1.76 µM) | 0.98 (≈ 3.59 µM) | 0.12 (≈ 0.439 µM) | 7.81 (≈ 28.6 µM) | 1.95 (≈ 7.13 µM) | 0.06 (≈ 0.219 µM) | 0.015 (≈ 0.0549 µM) | 0.98 (≈ 3.59 µM) | 0.24 (≈ 0.878 µM) | MFC/MIC (C. kefyr): 4; MFC (C. lusitaniae): 0.48 µg/mL (≈ 1.76 µM); MIC (C. lusitaniae): 0.12 µg/mL (≈ 0.439 µM); MFC (C. tropicalis): 0.98 µg/mL (≈ 3.59 µM); MIC (C. tropicalis): 0.06 µg/mL (≈ 0.219 µM); MFC (C. guilliermondii): 7.81 µg/mL (≈ 28.6 µM); MIC (C. guilliermondii): 0.48 µg/mL (≈ 1.76 µM); MFC (C. glabrata): > 1000 µg/mL; MIC (C. glabrata): 31.2 µg/mL (≈ 114 µM); activity at 0.98 µg/mL [1]: 89.61 ± 0.77%; activity at 1.95 µg/mL [1]: 84.2 ± 5.47%; activity at 3.91 µg/mL [1]: 79.2 ± 6.07%; activity at 7.81 µg/mL [1]: 86.2 ± 6.35%; activity at 15.63 µg/mL [1]: 63 ± 4.88%; activity at 20 µg/mL [1]: 58.5 ± 3.72%; activity at 25 µg/mL [1]: 57.8 ± 6.09%; activity at 31.25 µg/mL [1]: 68 ± 5.37%
